Source: patent publication US12492173B2, “Herbicidal substituted N-tetrazolyl aryl carboxamides” (Bayer Aktiengesellschaft, priority 2019, dated 2025)

Columns and labels:
Avena fatua = test: Pre-emergence herbicidal action, AVEFA; type: in vivo; conditions: comparative experiment, 20 g of a.i./ha
From the text: (§1) 1. Pre-Emergence Herbicidal Action Against Harmful Plants Seeds of monocotyledonous and dicotyledonous weed plants and crop plants are laid out in sandy loam soil in wood-fiber pots and covered with soil. The compounds of the invention, formulated in the form of wettable powders (WP) or as emulsion concentrates (EC), are then applied to the surface of the covering soil in the form of an aqueous suspension or emulsion at a water application rate equating to 600 to 800 l/ha, with addition of 0.2% wetting agent. After the treatment, the pots are placed in a greenhouse and kept under good growth conditions for the trial plants. The damage to the test plants is scored visually after a test period of 3 weeks by comparison with untreated controls (herbicidal activity in percent (%): 100% activity=the plants have died, 0% activity=like control plants). […] The tables below illustrate, in an exemplary manner, the post-emergence herbicidal action of the compounds according to the invention, the herbicidal activity being stated in percent. [table] In the experiments that follow, herbicidal action of numerous inventive compounds and the known compounds that are structurally closest from D1 (WO 2012/028579 A1) and D2 (WO 2018/202535 A1) were compared under the above-specified conditions by the pre-emergence and post-emergence method. […]

Alopecurus myosuroides = test: Pre-emergence herbicidal action, ALOMY; type: in vivo; design: key: % activity: 100 = plants have died, 0 = like control plants; conditions: comparative experiment
From the text: as §1, with “method. The example numbers given in the tables relate to the compounds disclosed in the respective documents. In addition to the compounds disclosed in D1 and D2, the following compounds V-1 to V-14 that are encompassed by D1 or D2 but are not compounds specified therein were used in the comparative experiments: • V-1: 2-(methylsulfanyl)-3-(methylsulfinyl)-N-(1-methyl-1H-tetrazol-5-yl)-4-(trifluoromethyl)benzamide • V-2: 2-(methylsulfanyl)-3-(methylsulfonyl)-N-(1-methyl-1H-tetrazol-5-yl)-4-(trifluoromethyl)benzamide • V-3: 2,3-bis(ethylsulfanyl)-N-(1-methyl-1H-tetrazol-5-yl)-4-(trifluoromethyl)benzamide • V-4: 2-chloro-3-(ethylsulfanyl)-N-(1-methyl-1H-tetrazol-5-yl)-4-(trifluoromethyl)benzamide • V-5: 2-chloro-4-iodo-3-(methylsulfanyl)-N-(1-methyl-1H-tetrazol-5-yl)benzamide • V-6: 2-chloro-4-iodo-3-(methylsulfinyl)-N-(1-methyl-1H-tetrazol-5-yl)benzamide • V-7: 2-chloro-4-iodo-3-(methylsulfonyl)-N-(1-methyl-1H-tetrazol-5-yl)benzamide • V-8: 2-bromo-3-(methylsulfanyl)-N-(1-methyl-1H-tetrazol-5-yl)-4-(trifluoromethyl)benzamide • V-9: 2-bromo-3-(methylsulfinyl)-N-(1-methyl-1H-tetrazol-5-yl)-4-(trifluoromethyl)benzamide • V-10: 2-bromo-3-(methylsulfonyl)-N-(1-methyl-1H-tetrazol-5-yl)-4-(trifluoromethyl)benzamide • V-11: 2-bromo-3-(ethylsulfanyl)-N-(1-methyl-1H-tetrazol-5-yl)-4-(trifluoromethyl)benzamide • V-12: 2-bromo-3-(ethylsulfinyl)-N-(1-methyl-1H-tetrazol-5-yl)-4-(trifluoromethyl)benzamide • V-13: 2-bromo-3-(ethylsulfonyl)-N-(1-methyl-1-1H-tetrazol-5-yl)-4-(trifluoromethyl)benzamide • V-14: 2-cyclopropyl-3-(ethylsulfanyl)-N-(1-methyl-1H-tetrazol-5-yl)-4-(trifluoromethyl)benzamide Herbicidal Pre-Emergence Action:” for “method.”

SMILES	Herbicidal action against ALOMY (Alopecurus myosuroides; 80 g of a.i./ha)	Herbicidal action against ALOMY (Alopecurus myosuroides; 20 g of a.i./ha)	further results
CSCc1c(C(F)F)ccc(C(=O)Nc2nnnn2C)c1Cl [Example 1-320]	–	–	Herbicidal action against AVEFA (Avena fatua): 70
CC[S+]([O-])Cc1c(C(F)(F)F)ccc(C(=O)Nc2nnnn2C)c1Br (racemic) [Example 1-384]	100	–	–
CCS(=O)(=O)c1c(C(F)(F)F)ccc(C(=O)Nc2nnnn2C)c1Br [Example V-13, 2-bromo-3-(ethylsulfonyl)-N-(1-methyl-1-1H-tetrazol-5-yl)-4-(trifluoromethyl)benzamide, reference compound]	0	–	–
CCS(=O)(=O)Cc1c(C(F)(F)F)ccc(C(=O)Nc2nnnn2C)c1Br [Example 1-385]	100	–	–
Cn1nnnc1NC(=O)c1ccc(I)c(C[S+](C)[O-])c1Cl (racemic) [Example 1-363]	–	50	–
CCSCc1c(C(F)(F)F)ccc(C(=O)Nc2nnnn2C)c1Cl [Example 1-299]	–	80	–
